Laboratory results from patent US20240252464A1, “A SELF-EMULSIFYING DRUG DELIVERY FORMULATION WITH IMPROVED ORAL BIOAVAILABILITY OF LIPOPHILIC COMPOUND” (Avantsar Sdn Bhd, priority 2022, published 2024).

Settings: rat, in vivo
Protocol: Non self-emulsifying tocotrienol oily suspension was prepared by mixing tocotrienols rich fraction (TRF) and palm olein at a ratio of 1:1. The total tocotrienol administered per rat was equivalent to 10 mg/kg body weight. The single dose of ketoconazole (suspension in water) was administered at a dose of 32 mg/kg body weight.
The rats were fasted overnight for at least 12 hours before the study. During Phase 1, the rats in Group 1 were given only the tocotrienol oily suspension while Group 2 were given a single dose of ketoconazole half an hour prior to administration of tocotrienol. Phase 2 was carried out after 1 week of wash-out period. Blood samples were taken from the tail vein according to the following predetermined sampling interval. The blood levels of individual tocotrienol isomers at each time point was analysed using HPLC assay.

CC(=O)N1CCN(c2ccc(OCC3COC(Cn4ccnc4)(c4ccc(Cl)cc4Cl)O3)cc2)CC1 (stereo not shown) [Ketoconazole, ketoconazole]
Increase in bioavailability compared with Control, Alpha-tocotrienol: 2.1-fold
Increase in bioavailability compared with Control, Delta-tocotrienol: 2.6-fold
Increase in bioavailability compared with Control, Gamma-tocotrienol: 3.0-fold
Enhancement of bioavailability of tocotrienols compared to without ketoconazole (po): 2-3 folds
